{"source": "patent US8580790B2", "about": "“(Heterocycle/condensed piperidine)-(piperazinyl)-1-alkanone or (heterocycle/condensed pyrrolidine)-(piperazinyl)-1-alkanone derivatives and use thereof as p75 inhibitors” (Sanofi, priority 2009, dated 2013)", "note": "Structures can show the parent of a compound that is named as a salt."}
{"units": {"melting point": "°C"}}
{"compound": "C[C@@H]1CN(c2ccc(-c3nnn(C)n3)cn2)C[C@H](C)N1CC(=O)N1CCc2nn(-c3ccccc3)cc2C1", "note": "[compound 87, 2-{(2S,6R)-2,6-dimethyl-4-[5-(2-methyl-2H-tetrazol-5-yl)pyridin-2-yl]piperazin-1-yl}-1-(2-phenyl-2,4,6,7-tetrahydropyrazolo[4,3-c]pyridin-5-yl)ethanone]", "melting point": "182 to 183"}
{"compound": "O=C(CN1CCN(c2ccc(C(F)(F)F)cn2)C(=O)C1)N1CCc2nc(-c3ccsc3)sc2C1", "note": "[compound 42, 4-[2-oxo-2-(2-thiophen-3-yl-6,7-dihydro-4H-thiazolo[5,4-c]pyridin-5-yl)ethyl]-1-(5-trifluoromethylpyridin-2-yl)piperazin-2-one]", "melting point": "179 to 180"}
{"compound": "C[C@@H]1CN(c2cccnc2)C[C@H](C)N1CC(=O)N1CCc2nn(-c3ccc(F)cn3)cc2C1", "note": "[compound 142, 2-((2S,6R)-2,6-dimethyl-4-pyridin-3-ylpiperazin-1-yl)-1-[2-(5-fluoropyridin-2-yl)-2,4,6,7-tetrahydropyrazolo[4,3-c]pyridin-5-yl]ethanone]", "melting point": "180 to 181"}
{"compound": "O=C(CN1CC2CCC(C1)N2c1ncc(F)cn1)N1CCc2c(cnn2CC(F)(F)F)C1", "note": "(as salt: oxalate)", "melting point": "160 to 162"}
{"compound": "COC(=O)c1ccc(N2CC3CCC(C2)N3CC(=O)N2CCc3nc(-c4ccccc4)sc3C2)nc1", "melting point": "162 to 163"}
{"compound": "O=C(O)c1ccc(N2CC3CCC(C2)N3CC(=O)N2CCc3nn(-c4ccccc4)cc3C2)nc1", "melting point": "207 to 208"}
{"compound": "COC(=O)c1ccc(N2CCN(CC(=O)N3CCc4nc(-c5ccccc5)sc4C3)CC2=O)nc1", "note": "[compound 25, 6-{2-oxo-4-[2-oxo-2-(2-phenyl-6,7-dihydro-4H-thiazolo[5,4-c]pyridin-5-yl)ethyl]piperazin-1-yl}nicotinic acid methyl ester]", "melting point": "191 to 192"}
{"compound": "O=C(CN1CC2CCC(C1)N2c1ncc(F)cn1)N1CCc2nn(-c3ccc(C(F)(F)F)cn3)cc2C1", "melting point": "208 to 209"}
{"compound": "COC(=O)c1ccc(N2C[C@@H](C)N(CC(=O)N3CCc4c(cnn4C(C)(C)C)C3)[C@@H](C)C2)nc1", "note": "[compound 92, 6-{(3S,5R)-4-[2-(1-tert-butyl-1,4,6,7-tetrahydropyrazolo[4,3-c]pyridin-5-yl)-2-oxoethyl]-3,5-dimethylpiperazin-1-yl}nicotinic acid methyl ester]", "melting point": "134 to 135"}
{"compound": "C[C@@H]1CN(c2ccc(-c3nnco3)cn2)C[C@H](C)N1CC(=O)N1CCc2nn(-c3ccccc3)cc2C1", "note": "[compound 90, 2-[(2S,6R)-2,6-dimethyl-4-(5-[1,3,4]oxadiazol-2-ylpyridin-2-yl)piperazin-1-yl]-1-(2-phenyl-2,4,6,7-tetrahydropyrazolo[4,3-c]pyridin-5-yl)ethanone]", "melting point": "189 to 190"}
{"compound": "O=C(CN1CCN(c2ccc(C(F)(F)F)cn2)C(=O)C1)N1CCc2oc(-c3ccccc3)nc2C1", "note": "[compound 83, 4-[2-oxo-2-(2-phenyl-6,7-dihydro-4H-oxazolo[4,5-c]pyridin-5-yl)ethyl]-1-(5-trifluoromethylpyridin-2-yl)piperazin-2-one]", "melting point": "140 to 142"}
{"compound": "C[C@@H]1CN(c2ccc(C(F)(F)F)cn2)C[C@H](C)N1CC(=O)N1CCc2nn(-c3ccc(C(F)(F)F)cn3)cc2C1", "note": "[compound 103, 2-[(2S,6R)-2,6-dimethyl-4-(5-trifluoromethylpyridin-2-yl)piperazin-1-yl]-1-[2-(5-trifluoromethylpyridin-2-yl)-2,4,6,7-tetrahydropyrazolo[4,3-c]pyridin-5-yl]ethanone]", "melting point": "190 to 191"}
{"compound": "C[C@@H]1CN(c2ccc(-c3nccs3)cn2)C[C@H](C)N1CC(=O)N1CCc2nn(-c3ccccc3)cc2C1", "note": "[compound 135, 2-[(2S,6R)-2,6-dimethyl-4-(5-thiazol-2-ylpyridin-2-yl)piperazin-1-yl]-1-(2-phenyl-2,4,6,7-tetrahydropyrazolo[4,3-c]pyridin-5-yl)ethanone]", "melting point": "173 to 174"}
{"compound": "O=C(CN1CCN(c2ccc(C(F)(F)F)cn2)C(=O)C1)N1CCc2nc(-c3ccccc3)[nH]c2C1", "note": "[compound 78, 4-[2-oxo-2-(2-phenyl-3,4,6,7-tetrahydroimidazo[4,5-c]pyridin-5-yl)ethyl]-1-(5-trifluoromethylpyridin-2-yl)piperazin-2-one]", "melting point": "198 to 200"}
{"compound": "C[C@@H]1CN(c2cncnc2)C[C@H](C)N1CC(=O)N1CCc2nn(-c3ccccc3)cc2C1", "note": "(as salt: HCl) [compound 16, 2-((2S,6R)-2,6-dimethyl-4-pyrimidin-5-yl-piperazin-1-yl)-1-(2-phenyl-2,4,6,7-tetrahydropyrazolo[4,3-c]pyridin-5-yl)ethanone]", "melting point": "166 to 167"}
{"compound": "O=C(CN1CCN(c2ccc(-c3ccn[nH]3)cn2)CC1)N1CCc2nc(-c3ccccc3)sc2C1", "note": "[compound 134, 1-(2-phenyl-6,7-dihydro-4H-thiazolo[5,4-c]pyridin-5-yl)-2-{4-[5-(2H-pyrazol-3-yl)pyridin-2-yl]piperazin-1-yl}ethanone]", "melting point": "231 to 237"}
{"compound": "O=C(CN1CC2CCC(C1)N2c1ncc(F)cn1)N1CCc2n[nH]cc2C1", "melting point": "122 to 123"}
{"compound": "C[C@@H]1CN(c2ccc(C(F)(F)F)cn2)C[C@H](C)N1CC(=O)N1CCc2nc(-c3ccccc3)[nH]c2C1", "note": "[compound 110, 2-[(2S,6R)-2,6-dimethyl-4-(5-trifluoromethylpyridin-2-yl)piperazin-1-yl]-1-(2-phenyl-3,4,6,7-tetrahydroimidazo[4,5-c]pyridin-5-yl)ethanone]", "melting point": "189 to 192"}
{"compound": "O=C(CN1CC2CCC(C1)N2c1ccc(C(F)(F)F)cn1)N1CCc2nc(-c3ccncc3)sc2C1", "melting point": "183 to 185"}
{"compound": "COC(=O)c1ccc(N2CC3CCC(C2)N3CC(=O)N2CCc3nn(-c4ccccc4)cc3C2)nc1", "melting point": "157 to 158"}
{"compound": "C[C@@H]1CN(c2ccc(C(=O)O)cn2)C[C@H](C)N1CC(=O)N1CCc2nn(-c3ccccc3)cc2C1", "note": "(as salt: HCl) [compound 21, 6-{(3S,5R)-3,5-dimethyl-4-[2-oxo-2-(2-phenyl-2,4,6,7-tetrahydropyrazolo[4,3-c]pyridin-5-yl)ethyl]piperazin-1-yl}nicotinic acid]", "melting point": "209 to 211"}
{"compound": "COC(=O)c1ccc(N2C3CCC2CN(CC(=O)N2CCc4nn(-c5ccc(C(F)(F)F)cn5)cc4C2)C3)nc1", "melting point": "217 to 218"}
{"compound": "C[C@@H]1CN(c2cccnc2)C[C@H](C)N1CC(=O)N1CCc2nc(-c3ccccc3)[nH]c2C1", "note": "[compound 145, 2-((2S,6R)-2,6-dimethyl-4-pyridin-3-ylpiperazin-1-yl)-1-(2-phenyl-3,4,6,7-tetrahydroimidazo[4,5-c]pyridin-5-yl)ethanone]", "melting point": "207 to 209"}
{"compound": "C[C@@H]1CN(c2ccc(C(F)(F)F)nc2)C[C@H](C)N1CC(=O)N1CCc2nn(-c3ccccc3)cc2C1", "note": "[compound 20, 2-[(2S,6R)-2,6-dimethyl-4-(6-trifluoromethylpyridin-3-yl)piperazin-1-yl]-1-(2-phenyl-2,4,6,7-tetrahydropyrazolo[4,3-c]pyridin-5-yl)ethanone]", "melting point": "174 to 175"}
{"compound": "O=C(CN1CCN(c2cccc(Cl)n2)CC1)N1CCc2nn(-c3ccccc3)cc2C1", "note": "[compound 114, 2-[4-(6-chloropyridin-2-yl)piperazin-1-yl]-1-(2-phenyl-2,4,6,7-tetrahydropyrazolo[4,3-c]pyridin-5-yl)ethanone]", "melting point": "155 to 156"}
{"compound": "CCOC(=O)c1ccc(N2C[C@@H](C)N(CC(=O)N3CCc4nn(-c5ccccc5)cc4C3)[C@@H](C)C2)nc1", "note": "(as salt: HCl) [compound 79, 6-{(3S,5R)-3,5-dimethyl-4-[2-oxo-2-(2-phenyl-2,4,6,7-tetrahydropyrazolo[4,3-c]pyridin-5-yl)ethyl]piperazin-1-yl}nicotinic acid ethyl ester]", "melting point": "235 to 236"}
{"compound": "C[C@@H]1CN(c2ncc(C(=O)O)cn2)C[C@H](C)N1CC(=O)N1CCc2nc(-c3ccccc3)sc2C1", "note": "(as salt: sodium) [compound 72, 2-{(3S,5R)-3,5-dimethyl-4-[2-oxo-2-(2-phenyl-6,7-dihydro-4H-thiazolo[5,4-c]pyridin-5-yl)ethyl]piperazin-1-yl}pyrimidine-5-carboxylic acid]", "melting point": "269 to 272"}
{"compound": "O=C(O)c1ccc(N2C3CCC2CN(CC(=O)N2CCc4nc(-c5ccc(F)cc5)sc4C2)C3)nc1", "melting point": "240 to 244"}
{"compound": "C[C@@H]1CN(c2ccc(C(F)(F)F)cn2)C[C@H](C)N1CC(=O)N1CCc2nn(C)cc2C1", "note": "(as salt: HCl) [compound 100, 2-[(2S,6R)-2,6-dimethyl-4-(5-trifluoromethylpyridin-2-yl)piperazin-1-yl]-1-(2-methyl-2,4,6,7-tetrahydropyrazolo[4,3-c]pyridin-5-yl)ethanone]", "melting point": "50 to 51"}
{"compound": "O=C(CN1CC2CCC(C1)N2c1ccc(-c2noc(=O)[nH]2)cn1)N1CCc2nn(-c3ccccc3)cc2C1", "melting point": "176 to 179"}
{"compound": "O=C(CN1CCN(c2ccc(C(F)(F)F)cn2)C(=O)C1)N1CCc2sc(-c3ccccc3)nc2C1", "note": "[compound 82, 4-[2-oxo-2-(2-phenyl-6,7-dihydro-4H-thiazolo[4,5-c]pyridin-5-yl)ethyl]-1-(5-trifluoromethylpyridin-2-yl)piperazin-2-one]", "melting point": "140 to 142"}
{"compound": "O=C(CN1CC2CCC(C1)N2c1ncc(F)cn1)N1CCc2sc(-c3ccccc3)nc2C1", "melting point": "180 to 184"}
{"compound": "O=C(CN1CC2CCC(C1)N2c1ccc(-c2ncon2)cn1)N1CCc2nn(-c3ccccc3)cc2C1", "melting point": "201 to 202"}
{"compound": "COC(=O)c1ccc(N2C3CCC2CN(CC(=O)N2Cc4nc(-c5ccccc5)sc4C2)C3)nc1", "melting point": "252 to 253"}
{"compound": "CC(C)OC(=O)c1ccc(N2C[C@@H](C)N(CC(=O)N3CCc4nn(-c5ccccc5)cc4C3)[C@@H](C)C2)nc1", "note": "[compound 98, 6-{(3S,5R)-3,5-dimethyl-4-[2-oxo-2-(2-phenyl-2,4,6,7-tetrahydropyrazolo[4,3-c]pyridin-5-yl)ethyl]piperazin-1-yl}nicotinic acid isopropyl ester]", "melting point": "135 to 136"}
{"compound": "O=C(CN1CCN(c2ccc(C(F)(F)F)cn2)C(=O)C1)N1CCc2nc(-c3cccnc3)sc2C1", "note": "[compound 84, 4-[2-oxo-2-(2-pyridin-3-yl-6,7-dihydro-4H-thiazolo[5,4-c]pyridin-5-yl)ethyl]-1-(5-trifluoromethylpyridin-2-yl)piperazin-2-one]", "melting point": "180 to 183"}
{"compound": "O=C(CN1CC2CCC(C1)N2c1cncnc1)N1CCc2nn(-c3ccccc3)cc2C1", "melting point": "197 to 198"}
